The values below come from patent US8067447B2, “Modulators of glucocorticoid receptor, AP-1, and/or NF-κB activity and use thereof” (Bristol-Myers Squibb Company, priority 2006, dated 2011).

Assay [1] addresses T1, human glucocorticoid receptor (Homo sapiens, UniProt P04150).
T1 construct: purified human recombinant full-length glucocorticoid receptor (2 nM); purchased Invitrogen Part #2893
T1 sequence (P04150 1-777): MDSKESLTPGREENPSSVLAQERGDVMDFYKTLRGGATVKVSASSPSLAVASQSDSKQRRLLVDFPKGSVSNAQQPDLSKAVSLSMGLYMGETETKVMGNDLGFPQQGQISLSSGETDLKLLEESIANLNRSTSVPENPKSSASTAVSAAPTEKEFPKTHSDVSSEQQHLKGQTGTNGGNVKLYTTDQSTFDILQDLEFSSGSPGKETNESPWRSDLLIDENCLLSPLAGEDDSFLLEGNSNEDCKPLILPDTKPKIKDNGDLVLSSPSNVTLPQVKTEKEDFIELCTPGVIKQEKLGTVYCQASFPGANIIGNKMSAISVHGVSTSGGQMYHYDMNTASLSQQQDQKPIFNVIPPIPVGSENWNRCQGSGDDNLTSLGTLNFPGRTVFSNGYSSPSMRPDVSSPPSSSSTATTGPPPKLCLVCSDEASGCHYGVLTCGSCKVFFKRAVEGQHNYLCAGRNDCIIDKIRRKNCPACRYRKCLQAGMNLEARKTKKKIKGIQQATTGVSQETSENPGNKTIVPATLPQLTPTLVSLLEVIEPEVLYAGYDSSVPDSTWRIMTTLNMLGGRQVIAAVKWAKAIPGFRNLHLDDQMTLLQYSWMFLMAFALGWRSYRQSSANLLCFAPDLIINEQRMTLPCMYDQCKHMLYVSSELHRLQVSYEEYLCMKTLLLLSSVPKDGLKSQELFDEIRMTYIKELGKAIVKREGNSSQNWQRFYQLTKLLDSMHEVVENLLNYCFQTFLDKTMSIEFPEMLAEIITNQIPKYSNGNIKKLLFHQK
In words: Glucocorticoid Receptor Binding Assay (I), fluorescence polarization competitor kit (Fluormone GS Red). The following applies: purified human recombinant full-length GR 2 nM, 1 nM Fluormone GS Red, FP; read-out: GR (Ki, nM) (GR Binding Assay (I)). Here is the method:
Briefly, purified human recombinant full-length glucocorticoid receptor (2 nM) was mixed with fluorescently labeled glucocorticoid (1 nM Fluormone GS Red) in the presence or absence of test compound. After two hour incubation at room temperature in the dark, the fluorescence polarization (FP) of the samples was measured. […] Test compounds were analyzed in the concentration range from 8.5E-05 μM to 5 μM.
(In fluorescence polarisation assays a small probe gives low polarisation when free and higher when bound to something large.)

In assay [2] the test system is AP-1 induced transcriptional activity. In words: Cellular Transrepressional Assay (AP-1 luciferase reporter in A549 cells, PMA-activated). The class given is cell-based. The following applies: A549 cells with 7x AP-1 luciferase reporter, 10 ng/ml PMA, read-out: AP-1 (EC50, nM) (Cellular Transrepression Assay). Here is the method:
To measure the ability of test molecules to inhibit AP-1 induced transcriptional activity an A549 cell was utilized which was stably transfected with a plasmid containing 7× AP-1 DNA binding sites (pAP-1-Luc plasmid, Stratagene Co. La Jolla, Calif.) followed by the gene for luciferase. Cells were activated with 10 ng/ml of […] (PMA) plus or minus test molecules for 7 hours. After 7 hours a luciferase reagent was added to measure luciferase enzymatic activity in the cell. After a 10 minute incubation of luciferase reagent with cells, luminescence was measured in a TopCount luminescence counter. Repression of AP-1 activity was calculated as the percentage decrease in the signal induced by PMA alone. Test molecules were analyzed in the concentration range from 0.1 nM to 40 μM. EC50s were determined by using standard curve fitting methods such as Excel fit (Microsoft Co.).
Background: Reporter assays use an easily measured gene product as a stand-in for the process of interest.

Structures are written as SMILES. Like-named read-outs stand apart in the source and are kept apart here.

Turning to `CC(C)(C(=O)Nc1nccs1)C(c1ccccc1)c1ccc2c(-c3ccccc3)n[nH]c2c1` (stereo not drawn) [Example 112, 2,2-Dimethyl-3-phenyl-3-(3-phenyl-1H-indazol-6-yl)-N-(thiazol-2-yl)propanamide], the Ki in assay [1] amounted to 13 nM. Besides, in assay [2] (Homo sapiens, A549, 7 h), the EC50 came out at 2410 nM.

As for `Cc1cnc(NC(=O)C(C)(C)C(c2ccccc2)c2ccc3c(cnn3-c3ccc(F)cc3)c2)s1` (stereo not drawn) [Example 17, 3-(1-(4-fluorophenyl)-1H-indazol-5-yl)-2,2-dimethyl-N-(5-methylthiazol-2-yl)-3-phenylpropanamide], the Ki in assay [1] is 11 nM. For the same compound, the EC50 in assay [2] (Homo sapiens, A549, 7 h) stood at 49 nM.

`CC(C)(C(=O)Nc1nncs1)C(c1ccccc1)c1ccc2c(cnn2-c2ccc(O)cc2)c1` (stereo not drawn) [Example 84, 3-(1-(4-hydroxyphenyl)-1H-indazol-5-yl)-2,2-dimethyl-3-phenyl-N-(1,3,4-thiadiazol-2-yl)propanamide]: in assay [1], the Ki came to 7.2 nM. Moreover, in assay [2] (Homo sapiens, A549, 7 h), the EC50 stood at 306 nM.

Turning to `Cc1ccc(-c2cc3cc(C(c4ccccc4)C(C)(C)C(=O)Nc4nccs4)ccc3[nH]2)cc1` (stereo not drawn) [Example 119, 2,2-dimethyl-3-phenyl-N-(thiazol-2-yl)-3-(2-p-tolyl-1H-indol-5-yl)propanamide], in assay [1], the Ki worked out at 146 nM. Further, the concentration for a half-maximal effect (EC50) in assay [2] (Homo sapiens, A549, 7 h) is 2130 nM.

For `CC(C)(C(=O)Nc1nnc(C(F)(F)F)s1)C(c1ccccc1)c1ccc2c(cnn2-c2ccc(F)cc2)c1` (stereo not drawn) [Example 25, 3-(1-(4-fluorophenyl)-1H-indazol-5-yl)-2,2-dimethyl-3-phenyl-N-(5-(trifluoromethyl)-1,3,4-thiadiazol-2-yl)propanamide], the Ki in assay [1] worked out at 19 nM. For the same compound, in assay [2] (Homo sapiens, A549, 7 h), the EC50 was greater than 10000 nM.

For the compound `CC(C)(Cc1ccc2c(cnn2-c2ccc(F)cc2)c1)C(=O)Nc1nncs1` [Example 32, 3-(1-(4-Fluorophenyl)-1H-indazol-5-yl)-2,2-dimethyl-N-(1,3,4-thiadiazol-2-yl)propanamide], the Ki in assay [1] came to 84 nM. For the same compound, the EC50 in assay [2] (Homo sapiens, A549, 7 h) amounted to 4320 nM.

On to `CC(C)(C(=O)Nc1nc[nH]n1)C(c1ccccc1)c1ccc2c(cnn2-c2ccc(F)cc2)c1` (stereo not drawn) [Example 13, 3-(1-(4-fluorophenyl)-1H-indazol-5-yl)-2,2-dimethyl-3-phenyl-N-(1H-1,2,4-triazol-3-yl)propanamide], for which the Ki in assay [1] was found to be 11 nM. In assay [2] (Homo sapiens, A549, 7 h), the EC50 amounted to 17 nM.

Turning to `CC(C)CCn1cc2cc(C(c3ccccc3)C(C)(C)C(=O)Nc3nncs3)ccc2n1` (stereo not drawn) [Example 67, 3-(2-isopentyl-2H-indazol-5-yl)-2,2-dimethyl-3-phenyl-N-(1,3,4-thiadiazol-2-yl)propanamide], the Ki in assay [1] is 25 nM. Further, the EC50 in assay [2] (Homo sapiens, A549, 7 h) was found to be 532 nM.

With `CC(C)(C(=O)Nc1nncs1)C(c1ccccc1)c1ccc2[nH]c(-c3nccs3)cc2c1` (stereo not drawn) [Example 118, 2,2-dimethyl-3-phenyl-N-(1,3,4-thiadiazol-2-yl)-3-(2-(thiazol-2-yl)-1H-indol-5-yl)propanamide], in assay [1], the Ki worked out at 95 nM. The EC50 in assay [2] (Homo sapiens, A549, 7 h) stood at 2930 nM.

Regarding `CC(C)(C(=O)Nc1ccsc1)C(c1ccccc1)c1ccc2c(cnn2-c2ccc(F)cc2)c1` (stereo not drawn) [Example 11, 3-(1-(4-fluorophenyl)-1H-indazol-5-yl)-2,2-dimethyl-3-phenyl-N-(thiophen-3-yl)propanamide], in assay [1], the Ki was found to be 11 nM. In addition, in assay [2] (Homo sapiens, A549, 7 h), the EC50 came to 73 nM.

In the case of `CC(C)(C(=O)Nc1nc2ccccc2s1)C(c1ccccc1)c1ccc2c(cnn2-c2ccc(F)cc2)c1` (stereo not drawn) [Example 23, N-(benzyl[d]thiazol-2-yl)-3-(1-(4-fluorophenyl)-1H-indazol-5-yl)-2,2-dimethyl-3-phenylpropanamide], in assay [1], the Ki was determined as 60 nM. Also, in assay [2] (Homo sapiens, A549, 7 h), the EC50 is greater than 10000 nM.

As to `CSc1nnc(NC(=O)C(C)(C)C(c2ccccc2)c2ccc3c(cnn3-c3ccc(F)cc3)c2)s1` (stereo not drawn) [Example 22, 3-(1-(4-fluorophenyl)-1H-indazol-5-yl)-2,2-dimethyl-N-(5-(methylthio)-1,3,4-thiadiazol-2-yl)-3-phenylpropanamide], the Ki in assay [1] is 29 nM. Further, in assay [2] (Homo sapiens, A549, 7 h), the EC50 was 840 nM.

Consider `CC(C)(C(=O)Nc1nccs1)C(c1ccccc1)c1ccc2c(cnn2-c2ccncc2)c1` (stereo not drawn) [Example 81, 2,2-dimethyl-3-phenyl-3-(1-(pyridin-4-yl)-1H-indazol-5-yl)-N-(thiazol-2-yl)propanamide], for which, in assay [1], the Ki is 11 nM. Moreover, in assay [2] (Homo sapiens, A549, 7 h), the EC50 came out at 1290 nM.

Consider `O=C(Nc1nccs1)C1CC1(c1ccccc1)c1ccc2c(cnn2-c2ccc(F)cc2)c1` (stereo not drawn) [Example 98, Trans-2-(1-(4-fluorophenyl)-1H-indazol-5-yl)-2-phenyl-N-(thiazol-2-yl)cyclopropanecarboxamide], for which the Ki in assay [1] was found to be 15 nM. Further, the EC50 in assay [2] (7 hours) amounted to 34 nM.

On to `CC(C)(C(=O)Nc1nncs1)C(c1ccccc1)c1ccc2c(cnn2Cc2ccccc2)c1` (stereo not drawn) [Example 72, 3-(1-benzyl-1H-indazol-5-yl)-2,2-dimethyl-3-phenyl-N-(1,3,4-thiadiazol-2-yl)propanamide], for which, in assay [1], the Ki turned out to be 14 nM. For the same compound, the EC50 in assay [2] (Homo sapiens, A549, 7 h) came to 1930 nM.

With `CC(C)(C(=O)Nc1nncs1)C(c1ccccc1)c1ccc2nn(Cc3ccccc3)cc2c1` (stereo not drawn) [Example 73, 3-(2-benzyl-2H-indazol-5-yl)-2,2-dimethyl-3-phenyl-N-(1,3,4-thiadiazol-2-yl)propanamide], the Ki in assay [1] was found to be 46 nM. The EC50 in assay [2] (Homo sapiens, A549, 7 h) is greater than 10000 nM.

As for `COc1ccc(-n2ncc3cc(C(c4ccccc4)C(C)(C)C(=O)Nc4nncs4)ccc32)cc1` (stereo not drawn) [Example 83, 3-(1-(4-methoxyphenyl)-1H-indazol-5-yl)-2,2-dimethyl-3-phenyl-N-(1,3,4-thiadiazol-2-yl)propanamide], the Ki in assay [1] is 8.8 nM. Moreover, in assay [2] (Homo sapiens, A549, 7 h), the EC50 was 230 nM.

On to `CC(C(=O)Nc1nncs1)C(c1ccccc1)c1ccc2c(cnn2-c2ccc(F)cc2)c1` (single isomer, unassigned) [Example 141-isomerC, 3-(1-(4-Fluorophenyl)-1H-indazol-5-yl)-2-methyl-3-phenyl-N-(1,3,4-thiadiazol-2-yl)propanamide], for which the EC50 in assay [2] (7 hours) came out at 0.23 nM.

On to `CC(C)(C(=O)Nc1nccs1)C(c1cc[n+]([O-])cc1)c1ccc2c(cnn2-c2ccc(F)cc2)c1` (stereo not drawn) [Example 37, 3-(1-(4-Fluorophenyl)-1H-indazol-5-yl)-2,2-dimethyl-3-(pyridin-4-N-oxide-yl)-N-(thiazol-2-yl)propanamide], for which, in assay [1], the Ki amounted to 301 nM. Moreover, the EC50 in assay [2] (Homo sapiens, A549, 7 h) worked out at 3350 nM.

Consider `CC(C)(C(=O)Nc1nncs1)C(c1ccccc1)c1ccc2c(cnn2CS(C)(=O)=O)c1` (stereo not drawn) [Example 64, 2,2-dimethyl-3-(1-(methylsulfonylmethyl)-1H-indazol-5-yl)-3-phenyl-N-(1,3,4-thiadiazol-2-yl)propanamide], for which, in assay [1], the Ki was found to be 65 nM. For the same compound, the EC50 in assay [2] (Homo sapiens, A549, 7 h) was greater than 10000 nM.

Consider `CC(C)n1ncc2cc(C(c3ccccc3)C(C)(C)C(=O)Nc3nccs3)ccc21` (stereo not drawn) [Example 61, 3-(1-isopropyl-1H-indazol-5-yl)-2,2-dimethyl-3-phenyl-N-(thiazol-2-yl)propanamide], for which, in assay [1], the inhibition constant Ki was determined as 14 nM. Moreover, the concentration for a half-maximal effect (EC50) in assay [2] (Homo sapiens, A549, 7 h) was 158 nM.

As for `O=C(Nc1nccs1)C1CC1(c1ccccc1)c1ccc2c(cnn2-c2ccc(F)cc2)c1` (stereo not drawn) [Example 99, Cis-2-(1-(4-fluorophenyl)-1H-indazol-5-yl)-2-phenyl-N-(thiazol-2-yl)cyclopropanecarboxamide], the EC50 in assay [2] (7 hours) was greater than 10000 nM.

As usually defined, the Ki is a dissociation constant, usually derived from enzyme kinetics or from competition with a known ligand. Broadly, the EC50 is the concentration at which the effect is half-maximal.
